This note sets out measurements from patent publication US8183264B2, “Pyridine derivative substituted by heteroaryl ring, and antifungal agent comprising the same” (Eisai R&D Managment Co., Ltd., priority 2006, dated 2012).

≈ marks a conversion by molar mass, not a printed value.

The test system of assay [1] is C. albicans CAF2-1 strain. Description: Anti-Candida activity (MIC measurement). In kind it is cell-based. Conditions: CAF21STRAIN, minimum inhibitory concentration (MIC) by visual inspection, RPMI 1640, 42 to 48 hours at 35° C. The procedure: (§1) 1. Anti-Candida Activity and Anti-Aspergillus Activity
(§2) (1) Preparation of Fungal Sample
(§3) For the C. albicans CAF2-1 strain, a fungal suspension from a standing culture for 48 hours at 30° C. in a Sabouraud dextrose liquid culture medium (SDB) was diluted with RPMI 1640 medium to adjust a fungal suspension of 1.2×10^3 cells/mL. For the A. fumigatus Tsukuba strain, −80° C. stored strain was diluted with RPMI 1640 medium to adjust to a fungal suspension of 4.5×10^3 cells/mL.
(§4) (2) Preparation of an Agent Dilution Plate
(§5) Using a U-bottomed 96-well plate, 8 samples/plate (A to H) of sample dilution solutions were prepared. On the 2nd to 12th rows were dispensed 10 μL of dimethyl sulfoxide solution. Weighed sample was dissolved in dimethyl sulfoxide to prepare a 2.5 mg/mL solution, 20 μL of this solution was added to the first row of the prepared plate, and 12 steps of two-fold step dilutions (10 μL of solution+10 μL of dimethyl sulfoxide solution) were performed on the plate. This sample dilution solution was dispensed in an amount of 1 μL into a flat-bottomed 96-well plate for MIC measurement to prepare a sample dilution plate.
(§6) (3) Inoculation of Fungal Suspension and Culture
(§7) The fungal suspension prepared in (1) was used in an amount of 99 μL/well to inoculate the flat-bottomed 96-well plate containing 1 μL/well of the test compound dilution prepared in (2), and standing culture was performed aerobically for 42 to 48 hours at 35° C.
(§8) The following representative compounds prepared in the examples were measured for anti-Candida activity and anti-Aspergillus activity by measurement method in (1).

Assay [2] relates to A. fumigatus Tsukuba strain. Description: Anti-Aspergillus activity (MIC measurement). In kind it is cell-based. Conditions: minimum inhibitory concentration (MIC) by visual inspection, RPMI 1640, 42 to 48 hours at 35° C. The protocol:
as §1, §2, §3, §4, §5, §6, §7, §8

For orientation: MIC means the smallest concentration in the dilution series that meets the test's criterion for growth inhibition. A higher MIC goes with a need for much substance. As for `Nc1ncccc1-c1cn(Cc2ccc(OCc3ccccc3)cc2)nn1` [Example 1, 3-(1-(4-Benzyloxy-benzyl)-1H-[1,2,3]triazol-4-yl)-pyridin-2-ylamine], the values for the minimal inhibitory concentration (MIC) in assay [1] and in assay [2] were 0.05 µg/mL (≈ 0.14 µM) and 0.2 µg/mL (≈ 0.56 µM), respectively.
For `Cc1ccc(-c2cn(Cc3ccc(OCc4ccccc4)cc3)nn2)cn1` [Example 2, 5-(1-(4-Benzyloxy-benzyl)-1H-[1,2,3]triazol-4-yl)-2-methyl-pyridine], the values for the MIC in assay [1] and in assay [2] were 3.13 µg/mL (≈ 8.78 µM) and 1.56 µg/mL (≈ 4.38 µM), respectively.
The like results for `Nc1ccc(-c2cn(Cc3ccc(OCc4ccccc4)cc3)nn2)cn1` [Example 3, 5-(1-(4-Benzyloxy-benzyl)-1H-[1,2,3]triazol-4-yl)-pyridin-2-ylamine] were, in that order, 1.56 µg/mL (≈ 4.36 µM) and 0.78 µg/mL (≈ 2.18 µM).
Take `Nc1ccc(-c2cn(Cc3ccc(OCc4ccccc4)cc3)nn2)c(N)n1` [Example 4, 3-(1-(4-Benzyloxy-benzyl)-1H-[1,2,3]triazol-4-yl)-pyridin-2,6-diamine]: the minimum inhibitory concentration (MIC) in assay [1] is 0.39 µg/mL (≈ 1.05 µM); in assay [2] it was 0.78 µg/mL (≈ 2.09 µM).
The matching figures for `COCc1ccc(-c2nnn(Cc3ccc(OCc4ccccc4)cc3)n2)c(N)n1` [Example 6, 3-(2-(4-Benzyloxy-benzyl)-2H-tetrazol-5-yl)-6-methoxymethyl-pyridin-2-ylamine]: 1.56 µg/mL (≈ 3.88 µM) and 1.56 µg/mL (≈ 3.88 µM).
The matching figures for `Nc1ccc(-c2nnn(Cc3ccc(OCc4ccccc4)cc3)n2)c(N)n1` [Example 7, 3-(2-(4-Benzyloxy-benzyl)-2H-tetrazol-5-yl)-pyridin-2,6-diamine]: 0.39 µg/mL (≈ 1.04 µM) and 1.56 µg/mL (≈ 4.18 µM).
`Nc1ncccc1-c1nnc(Cc2ccc(OCc3ccccc3)cc2)s1` [Example 8]: the values for the MIC in assay [1] and in assay [2] were 0.78 µg/mL (≈ 2.08 µM) and 1.56 µg/mL (≈ 4.17 µM), respectively.
The matching figures for `Nc1ccc(-c2nnc(Cc3ccc(OCc4ccccc4)cc3)s2)c(N)n1` [Example 10]: 3.13 µg/mL (≈ 8.04 µM) and 25 µg/mL (≈ 64.2 µM).
The matching figures for `COCc1ccc(-c2nnc(Cc3ccc(OCc4ccccc4)cc3)o2)c(N)n1` [Example 11]: 6.25 µg/mL (≈ 15.5 µM) and 3.13 µg/mL (≈ 7.78 µM).
For `Nc1ncccc1-n1cc(Cc2ccc(OCc3ccccc3)cc2)nn1` [Example 12, 3-(4-(4-Benzyloxy-benzyl)-[1,2,3]triazol-1-yl)-pyridin-2-ylamine], the MIC in assay [1] and in assay [2] was 0.2 µg/mL (≈ 0.56 µM) throughout.
As to `Nc1ncccc1-c1noc(Cc2ccc(OCc3ccccc3)cc2)n1` [Example 13, 3-(5-(4-Benzyloxy-benzyl)-[1,2,4]-oxadiazol-3-yl)-pyridin-2-ylamine], the minimal inhibitory concentration (MIC) in assay [1] and in assay [2] was 1.56 µg/mL (≈ 4.35 µM) throughout.
Regarding `Nc1ncccc1-c1ncn(Cc2ccc(OCc3ccccc3)cc2)n1` [Example 14, 3-(1-(4-Benzyloxy-benzyl)-1H-[1,2,4]triazol-3-yl)-pyridin-2-ylamine], the figures for the minimum inhibitory concentration (MIC) in assay [1] and in assay [2] were 6.25 µg/mL (≈ 17.5 µM) and more than 25 µg/mL, respectively.
The like results for `Nc1ncccc1-c1nnc(Cc2ccc(OCc3ccccc3)cc2)[nH]1` [Example 15, 3-(5-(4-Benzyloxy-benzyl)-4H-[1,2,4]triazol-3-yl)-pyridin-2-ylamine] were, in that order, 6.25 µg/mL (≈ 17.5 µM) and 3.13 µg/mL (≈ 8.76 µM).
The like results for `Nc1ncccc1-c1cn(Cc2ccc(Cc3ccc(Cl)o3)cc2)nn1` [Example 16, 3-(1-(4-(5-Chloro-furan-2-ylmethyl)-benzene)-1H-[1,2,3]triazol-4-yl)-pyridin-2-ylamine] were, in that order, 0.05 µg/mL (≈ 0.137 µM) and 0.78 µg/mL (≈ 2.13 µM).
The like results for `Cc1ccc(-c2cn(Cc3ccc(Cc4ccc(Cl)o4)cc3)nn2)cn1` [Example 17, 5-(1-(4-(5-Chloro-furan-2-ylmethyl)-benzyl)-1H-[1,2,3]triazol-4-yl)-2-methyl-pyridine] were, in that order, 3.13 µg/mL (≈ 8.58 µM) and 0.78 µg/mL (≈ 2.14 µM).
As to `COCc1ccc(-c2cn(Cc3ccc(Cc4ccc(Cl)o4)cc3)nn2)c(N)n1` [Example 19, 3-(1-(4-(5-Chloro-furan-2-ylmethyl)-benzyl)-1H-[1,2,3]triazol-4-yl)-6-methoxymethyl-pyridin-2-ylamine], the MIC in assay [1] was found to be 0.39 µg/mL (≈ 0.952 µM); in assay [2], 3.13 µg/mL (≈ 7.64 µM).
The like results for `Nc1ncccc1-c1nnn(Cc2ccc(Cc3ccc(Cl)o3)cc2)n1` [Example 21, 3-(2-(4-(5-Chloro-furan-2-ylmethyl)-benzyl)-2H-tetrazol-5-yl)-pyridin-2-ylamine] were, in that order, 0.39 µg/mL (≈ 1.06 µM) and 0.39 µg/mL (≈ 1.06 µM).
The like results for `Nc1ccc(-c2nnn(Cc3ccc(Cc4ccc(Cl)o4)cc3)n2)c(N)n1` [Example 22, 3-(2-(4-(5-Chloro-furan-2-ylmethyl)-benzyl)-2H-tetrazol-5-yl)-pyridin-2,6-diamine] were, in that order, 0.39 µg/mL (≈ 1.02 µM) and 1.56 µg/mL (≈ 4.09 µM).
For the compound `Nc1ncccc1-c1noc(Cc2ccc(OCc3ccccn3)cc2)n1` [Example 23], the MIC came to 1.56 µg/mL (≈ 4.34 µM) in assay [1] and 6.25 µg/mL (≈ 17.4 µM) in assay [2].
The like results for `Nc1ncccc1-c1nnc(Cc2ccc(OCc3ccccn3)cc2)o1` [Example 24] were, in that order, 1.56 µg/mL (≈ 4.34 µM) and 6.25 µg/mL (≈ 17.4 µM).
The matching figures for `Nc1ncccc1-c1cn(Cc2ccc(COc3ccccn3)cc2)nn1` [Example 26, 3-(1-(4-(Pyridin-2-yloxymethyl)-benzyl)-1H-[1,2,3]triazol-4-yl)-pyridin-2-ylamine]: 0.05 µg/mL (≈ 0.14 µM) and 0.39 µg/mL (≈ 1.09 µM).
The matching figures for `Nc1ncccc1-c1cn(Cc2cccc(Oc3ccccc3)c2)nn1` [Example 28, 3-(1-(3-Phenoxy-benzyl)-1H-[1,2,3]triazol-4-yl)-pyridin-2-ylamine]: 0.1 µg/mL (≈ 0.291 µM) and 1.56 µg/mL (≈ 4.54 µM).
As for `Nc1ccc(-c2cn(Cc3cccc(Oc4ccccc4)c3)nn2)cn1` [Example 29, 5-(1-(3-Phenoxy-benzyl)-1H-[1,2,3]triazol-4-yl)-pyridin-2-ylamine], the MIC was determined as 0.39 µg/mL (≈ 1.14 µM) in assay [1] and 1.56 µg/mL (≈ 4.54 µM) in assay [2].
The matching figures for `Nc1ncccc1-c1nnn(Cc2cccc(Oc3ccccc3)c2)n1` [Example 31, 3-(2-(3-Phenoxy-benzyl)-2H-tetrazol-5-yl)-pyridin-2-ylamine]: 0.39 µg/mL (≈ 1.13 µM) and 0.78 µg/mL (≈ 2.26 µM).
For `Nc1ncccc1-c1cn(Cc2ccc(Oc3ccccc3)cc2)nn1` [Example 32, 3-(1-(4-Phenoxy-benzyl)-1H-[1,2,3]triazol-4-yl)-pyridin-2-ylamine], the MIC turned out to be 0.1 µg/mL (≈ 0.291 µM) in assay [1] and 0.39 µg/mL (≈ 1.14 µM) in assay [2].
`Nc1ncccc1-c1nnn(Cc2ccc(Oc3ccccc3)cc2)n1` [Example 35, 3-(2-(4-Phenoxy-benzyl)-2H-tetrazol-5-yl)-pyridin-2-ylamine]: the results for the MIC in assay [1] and in assay [2] were 1.56 µg/mL (≈ 4.53 µM) and 0.78 µg/mL (≈ 2.26 µM), respectively.
The matching figures for `Nc1ncccc1-c1cn(Cc2ccc(COc3ccccc3)cn2)nn1` [Example 37, 3-(1-(5-Phenoxymethyl-pyridin-2-ylmethyl)-1H-[1,2,3]triazol-4-yl)-pyridin-2-ylamine]: 0.2 µg/mL (≈ 0.558 µM) and 1.56 µg/mL (≈ 4.35 µM).
Regarding `Nc1ccc(-c2nnn(Cc3ccc(OCc4ccccc4)cn3)n2)c(N)n1` [Example 40, 3-(2-(5-Benzyloxy-pyridin-2-ylmethyl)-2H-tetrazol-5-yl)-pyridin-2,6-diamine], the figures for the minimum inhibitory concentration (MIC) in assay [1] and in assay [2] were 1.56 µg/mL (≈ 4.17 µM) and more than 25 µg/mL, respectively.
The like results for `CCCCOc1ccc(Cc2nnc(-c3cccnc3N)o2)cc1` [Example 45, 3-(5-(4-Butoxy-benzyl)-[1,3,4]oxadiazol-2-yl)-pyridin-2-ylamine] were, in that order, 6.25 µg/mL (≈ 19.3 µM) and 12.5 µg/mL (≈ 38.5 µM).
Regarding `Nc1ncccc1-c1nnn(Cc2ccc(Oc3ccccc3)s2)n1` [Example 46, 3-(2-(5-Phenoxy-thiophen-2-ylmethyl)-2H-tetrazol-5-yl)-pyridin-2-ylamine], the MIC came to 0.39 µg/mL (≈ 1.11 µM) in assay [1] and 1.56 µg/mL (≈ 4.45 µM) in assay [2].
For `Nc1ncccc1-c1nnn(Cc2ccc(OCc3ccccc3)s2)n1` [Example 48, 3-(2-(5-Benzyloxy-thiophen-2-ylmethyl)-2H-tetrazol-5-yl)-pyridin-2-ylamine], the minimum inhibitory concentration (MIC) came out at 0.39 µg/mL (≈ 1.07 µM) in assay [1] and 1.56 µg/mL (≈ 4.28 µM) in assay [2].
The like results for `Nc1ncccc1-c1nnn(Cc2ccccc2)n1` [Example 49, 3-(2-Benzyl-2H-tetrazol-5-yl)-pyridin-2-ylamine] were, in that order, 1.56 µg/mL (≈ 6.18 µM) and 12.5 µg/mL (≈ 49.5 µM).
Regarding `CCOc1ccc(Cn2nnc(-c3cccnc3N)n2)cc1` [Example 50, 3-(2-(4-Ethoxy-benzyl)-2H-tetrazol-5-yl)-pyridin-2-ylamine], the minimum inhibitory concentration (MIC) in assay [1] is 6.25 µg/mL (≈ 21.1 µM); in assay [2] it was more than 25 µg/mL.
The like results for `Nc1ncccc1-c1nnn(Cc2ccc(Oc3ccc(F)cc3)o2)n1` [Example 51, 3-(2-(5-(4-Fluoro-phenoxy)-furan-2-ylmethyl)-2H-tetrazol-5-yl)-pyridin-2-ylamine] were, in that order, 6.25 µg/mL (≈ 17.7 µM) and 3.13 µg/mL (≈ 8.88 µM).
As for `Cc1ccc(Cc2cccc(Cn3nnc(-c4cccnc4N)n3)c2)s1` [Example 52, 3-(2-(3-(5-Methyl-thiophen-2-ylmethyl)-benzyl)-2H-tetrazol-5-yl)-pyridin-2-ylamine], the MIC in assay [1] stood at 1.56 µg/mL (≈ 4.3 µM); in assay [2] it was 3.13 µg/mL (≈ 8.64 µM).
The matching figures for `Nc1ncccc1-c1nnn(Cc2ccn(Cc3ccccc3)c2)n1` [Example 55, 3-(2-(1-Benzyl-1H-pyrrol-3-ylmethyl)-2H-tetrazol-5-yl)-pyridin-2-ylamine]: 0.1 µg/mL (≈ 0.302 µM) and 0.78 µg/mL (≈ 2.35 µM).
